Measured values as given in US11051515B2, “3-acyl-benzamides and their use as herbicides” (Bayer Aktiengesellschaft, priority 2017, dated 2021).

Assays:
[1] = test system: ALOMY; test: Pre-emergence action against ALOMY; assay type: in vivo, Alopecurus myosuroides; details: dosage 320 g/ha, pre-emergence, scored visually after 3 weeks vs untreated controls, 100% = plants have died, 0% = like control plants
Summary of the method: (§1)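 Seeds sown in sandy loam in wood-fiber pots and covered with soil. Greenhouse growth; visual damage scored after 3 weeks versus untreated controls (100% = dead, 0% = like control).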

[2] = test system: AVEFA; test: Pre-emergence action against AVEFA; assay type: in vivo, Avena fatua; details: dosage 320 g/ha, scored visually after 3 weeks vs untreated controls
Summary of the method: as §1

[3] = test system: CYPES; test: Pre-emergence action against CYPES; assay type: in vivo, Cyperus esculentus; details: pre-emergence, dosage 320 g/ha, scored visually after 3 weeks vs untreated controls
Summary of the method: as §1

[4] = test system: ECHCG; test: Pre-emergence action against ECHCG; assay type: in vivo, Echinochloa crus-galli; details: pre-emergence, dosage 320 g/ha, scored visually after 3 weeks vs untreated controls
Summary of the method: as §1

[5] = test system: LOLMU; test: Pre-emergence action against LOLMU; assay type: in vivo, Lolium multiflorum; details: dosage 320 g/ha, scored visually after 3 weeks vs untreated controls
Summary of the method: as §1

[6] = test system: SETVI; test: Pre-emergence action against SETVI; assay type: in vivo, Setaria viridis; details: pre-emergence, dosage 320 g/ha, scored visually after 3 weeks vs untreated controls
Summary of the method: as §1

[7] = test system: ABUTH; test: Pre-emergence action against ABUTH; assay type: in vivo, Abutilon theophrasti; details: pre-emergence, dosage 320 g/ha, scored visually after 3 weeks vs untreated controls
Summary of the method: as §1

[8] = test system: AMARE; test: Pre-emergence action against AMARE; assay type: in vivo, Amaranthus retroflexus; details: pre-emergence, dosage 320 g/ha, scored visually after 3 weeks vs untreated controls
Summary of the method: as §1

[9] = test system: MATIN; test: Pre-emergence action against MATIN; assay type: in vivo, Matricaria inodora; details: Dosage 320 g/ha, pre-emergence
Summary of the method: as §1

[10] = test system: PHBPU; test: Pre-emergence action against PHBPU; assay type: in vivo, Pharbitis purpurea; details: Dosage 320 g/ha, pre-emergence
Summary of the method: as §1

[11] = test system: STEME; test: Pre-emergence action against STEME; assay type: in vivo, Stellaria media; details: Dosage 320 g/ha, pre-emergence
Summary of the method: as §1

[12] = test system: VIOTR; test: Pre-emergence action against VIOTR; assay type: in vivo, Viola tricolor; details: Dosage 320 g/ha, pre-emergence
Summary of the method: as §1

[13] = test system: VERPE; test: Pre-emergence action against VERPE; assay type: in vivo, Veronica persica; details: Dosage 320 g/ha, pre-emergence
Summary of the method: as §1

[14] = test system: ALOMY; test: Post-emergence action against ALOMY; assay type: in vivo, Alopecurus myosuroides; details: Dosage 80 g/ha, post-emergence
Summary of the method: (§2)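 Weeds grown in sandy loam in greenhouse, treated at one-leaf stage (2–3 weeks after sowing) with WP or EC formulations sprayed as aqueous suspension/emulsion at 600 to […] water with 0.2% wetting agent. Visual rating after about 3 weeks versus untreated controls, as % herbicidal action (100% = plants dead, 0% = like control).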

[15] = test system: AVEFA; test: Post-emergence action against AVEFA; assay type: in vivo, Avena fatua; details: post-emergence, dosage 80 g/ha, visual assessment about 3 weeks after treatment vs untreated controls
Summary of the method: as §2

[16] = test system: ECHCG; test: Post-emergence action against ECHCG; assay type: in vivo, Echinochloa crus-galli; details: post-emergence, dosage 80 g/ha, visual assessment about 3 weeks after treatment vs untreated controls
Summary of the method: as §2

[17] = test system: LOLMU; test: Post-emergence action against LOLMU; assay type: in vivo, Lolium multiflorum; details: dosage 80 g/ha, visual assessment about 3 weeks after treatment vs untreated controls
Procedure: Seeds of monocotyledonous and dicotyledonous weed and crop plants are laid out in sandy loam soil in wood-fiber pots, covered with soil and cultivated in a greenhouse under good growth conditions. 2 to 3 weeks after sowing, the test plants are treated at the one-leaf stage. The compounds of the invention, formulated in the form of wettable powders (WP) or as emulsion concentrates (EC), are then sprayed onto the green parts of the plants in the form of an aqueous suspension or emulsion at a water application rate equating to […], with addition of 0.2% wetting agent. After the test plants have been left to stand in the greenhouse under optimal growth conditions for about 3 weeks, the action of the preparations is assessed visually in comparison to untreated controls (herbicidal action in percent (%): 100% activity=the plants have died, 0% activity=like control plants). […] At the same time, inventive compounds leave Gramineae crops such as barley, wheat, rye, millet/Sorghum, corn or rice virtually undamaged when applied post-emergence, even at high active ingredient dosages. In addition, some substances are also harmless to dicotyledonous crops such as soya, cotton, oilseed rape, sugar beet or potatoes. Some of the compounds according to the invention have high selectivity and are therefore suitable for controlling unwanted vegetation in agricultural crops by the post-emergence method. The data of Tables B18 to B34 below illustrate, in an exemplary manner, the […] herbicidal action of the compounds according to the invention, the herbicidal activity being stated in percent.

[18] = test system: SETVI; test: Post-emergence action against SETVI; assay type: in vivo, Setaria viridis; details: post-emergence, dosage 80 g/ha, visual assessment about 3 weeks after treatment vs untreated controls
Summary of the method: as §2

[19] = test system: ABUTH; test: Post-emergence action against ABUTH; assay type: in vivo, Abutilon theophrasti; details: post-emergence, dosage 80 g/ha, visual assessment about 3 weeks after treatment vs untreated controls
Summary of the method: as §2

[20] = test system: AMARE; test: Post-emergence action against AMARE; assay type: in vivo, Amaranthus retroflexus; details: post-emergence, dosage 80 g/ha, visual assessment about 3 weeks after treatment vs untreated controls
Summary of the method: as §2

[21] = test system: MATIN; test: Post-emergence action against MATIN; assay type: in vivo, Matricaria inodora; details: post-emergence, dosage 80 g/ha, visual assessment about 3 weeks after treatment vs untreated controls
Summary of the method: as §2

[22] = test system: PHBPU; test: Post-emergence action against PHBPU; assay type: in vivo, Pharbitis purpurea; details: post-emergence, dosage 80 g/ha
Summary of the method: as §2

[23] = test system: POLCO; test: Post-emergence action against POLCO; assay type: in vivo, Polygonum convolvulus; details: post-emergence, dosage 80 g/ha
Summary of the method: as §2

[24] = test system: VIOTR; test: Post-emergence action against VIOTR; assay type: in vivo, Viola tricolor; details: post-emergence, dosage 80 g/ha
Summary of the method: as §2

[25] = test system: VERPE; test: Post-emergence action against VERPE; assay type: in vivo, Veronica persica; details: dosage 80 g/ha
Summary of the method: as §2

[26] = test system: POLCO; test: Pre-emergence action against POLCO; assay type: in vivo, Polygonum convolvulus; details: Fallopia convolvulus, 504 h; Dosage 320 g/ha, pre-emergence
Summary of the method: as §1

[27] = test system: STEME; test: Post-emergence action against STEME; assay type: in vivo, Stellaria media; details: Stellaria media, 504 h; post-emergence, dosage 80 g/ha
Summary of the method: as §2

Question: Which results are given for CCn1nnnc1NC(=O)c1ccc(C(F)(F)F)c(C(=O)C2CC2)c1Cl [2-141]?
Answer: Pre-emergence action against ALOMY (herbicidal activity in percent) [1]: 100%; Pre-emergence action against AVEFA (herbicidal activity) [2]: 100%; Pre-emergence action against CYPES (herbicidal activity) [3]: 90%; Pre-emergence action against ECHCG (herbicidal activity) [4]: 100%; Pre-emergence action against LOLMU (herbicidal activity) [5]: 100%; SETVI (Table B8, pre-emergence herbicidal activity) [6]: 100%; Pre-emergence action against ABUTH (herbicidal activity) [7]: 100%; Pre-emergence action against AMARE (herbicidal activity) [8]: 100%; Pre-emergence action against MATIN [9]: 100%; Pre-emergence action against PHBPU [10]: 80%; Pre-emergence action against STEME [11]: 90%; Pre-emergence action against VIOTR [12]: 100%; Pre-emergence action against VERPE [13]: 100%; Post-emergence action against ALOMY [14]: 90%; Post-emergence action against AVEFA (herbicidal action in percent) [15]: 90%; Post-emergence action against ECHCG (herbicidal action in percent) [16]: 90%; Post-emergence action against LOLMU (herbicidal action in percent) [17]: 90%; Post-emergence action against SETVI (herbicidal action in percent) [18]: 90%; Post-emergence action against ABUTH (herbicidal action in percent) [19]: 90%; Post-emergence action against AMARE (herbicidal action in percent) [20]: 90%; Post-emergence action against MATIN (herbicidal action in percent) [21]: 80%; Post-emergence action against PHBPU [22]: 90; Post-emergence action against POLCO [23]: 90; Post-emergence action against VIOTR [24]: 100; Post-emergence action against VERPE [25]: 80

Question: How did the pest or weed control at 320 g/ha ([1]; Alopecurus myosuroides, 504 h, read-out: Pre-emergence action against ALOMY (herbicidal activity in percent)) turn out when CSc1ccc(C(=O)Nc2nnnn2C)c(Cl)c1C(C)=O [1-121] was run?
Answer: 90%

Question: And the pest or weed control at 320 g/ha ([2]; Avena fatua, 504 h, read-out: Pre-emergence action against AVEFA (herbicidal activity))?
Answer: 90%

Question: And the pest or weed control at 320 g/ha ([3]; Cyperus esculentus, 504 h, read-out: Pre-emergence action against CYPES (herbicidal activity))?
Answer: 90%

Question: What about the pest or weed control at 320 g/ha ([4]; Echinochloa crus-galli, 504 h, read-out: Pre-emergence action against ECHCG (herbicidal activity)) of the same compound?
Answer: 100%

Question: And the pest or weed control at 320 g/ha ([5]; Lolium multiflorum, 504 h, read-out: Pre-emergence action against LOLMU (herbicidal activity))?
Answer: 90%

Question: And the pest or weed control at 320 g/ha ([6]; Setaria viridis, 504 h, read-out: SETVI (Table B8, pre-emergence herbicidal activity))?
Answer: 100%

Question: What about the pest or weed control at 320 g/ha ([7]; Abutilon theophrasti, 504 h, read-out: Pre-emergence action against ABUTH (herbicidal activity)) of the same compound?
Answer: 90%

Question: What about the pest or weed control at 320 g/ha ([8]; Amaranthus retroflexus, 504 h, read-out: Pre-emergence action against AMARE (herbicidal activity)) of the same compound?
Answer: 100%

Question: And the pest or weed control at 320 g/ha ([9]; Tripleurospermum inodorum, 504 h)?
Answer: 100%

Question: And the pest or weed control at 320 g/ha [26]?
Answer: 90%

Question: And the pest or weed control at 320 g/ha ([11]; Stellaria media, 504 h)?
Answer: 90%

Question: And the pest or weed control at 320 g/ha ([12]; Viola tricolor, 504 h)?
Answer: 100%

Question: What about the pest or weed control at 320 g/ha ([13]; Veronica persica, 504 h) of the same compound?
Answer: 100%

Question: And the pest or weed control at 80 g/ha ([14]; Alopecurus myosuroides, 504 h)?
Answer: 90%

Question: What about the pest or weed control at 80 g/ha ([15]; Avena fatua, 504 h, read-out: Post-emergence action against AVEFA (herbicidal action in percent)) of the same compound?
Answer: 90%

Question: What about the pest or weed control at 80 g/ha ([16]; Echinochloa crus-galli, 504 h, read-out: Post-emergence action against ECHCG (herbicidal action in percent)) of the same compound?
Answer: 90%

Question: And the pest or weed control at 80 g/ha ([17]; Lolium multiflorum, 504 h, read-out: Post-emergence action against LOLMU (herbicidal action in percent))?
Answer: 90%

Question: And the pest or weed control at 80 g/ha ([18]; Setaria viridis, 504 h, read-out: Post-emergence action against SETVI (herbicidal action in percent))?
Answer: 90%

Question: And the pest or weed control at 80 g/ha ([19]; Abutilon theophrasti, 504 h, read-out: Post-emergence action against ABUTH (herbicidal action in percent))?
Answer: 90%

Question: What about the pest or weed control at 80 g/ha ([20]; Amaranthus retroflexus, 504 h, read-out: Post-emergence action against AMARE (herbicidal action in percent)) of the same compound?
Answer: 90%

Question: What about the pest or weed control at 80 g/ha ([21]; Tripleurospermum inodorum, 504 h, read-out: Post-emergence action against MATIN (herbicidal action in percent)) of the same compound?
Answer: 100%

Question: And the pest or weed control at 80 g/ha ([22]; Ipomoea purpurea, 504 h)?
Answer: 90%

Question: And the pest or weed control at 80 g/ha ([23]; Fallopia convolvulus, 504 h)?
Answer: 80%

Question: What about the pest or weed control at 80 g/ha [27] of the same compound?
Answer: 100%

Question: And the pest or weed control at 80 g/ha ([24]; Viola tricolor, 504 h)?
Answer: 90%

Question: And the pest or weed control at 80 g/ha ([25]; Veronica persica, 504 h)?
Answer: 100%
